Results as given in patent publication US9983196B2, “Compositions and methods for optimizing drug hydrophobicity and drug delivery to cells” (Bioelastics, Inc., priority 2009, dated 2018).

What was measured:
[1] = negatively stained, electron micrograph; cited from earlier work
[2] = cited from earlier work; for ΔG°HA(GχGVP) (data within parentheses): microbial preparations of poly(30 mers), n ≈ 40
[3] = cited from earlier work; for Tt (data within parentheses): microbial preparations of poly(30 mers) (GVGVP GVGVP GχGVP GVGVP GVGVP GVGVP)n, n ≈ 40; for Tt: guest residue χ in poly[fχ(GχGVP),fv(GVGVP)], extrapolated to fχ=1, some cells marked (Tt)
[4] = differential scanning calorimetry of the inverse temperature transition: ΔGHA-based hydrophobicity scale; assay type: physicochemical
Text: Described herein is a hydrophobicity scale based on the change in Gibbs free energy of hydrophobic association. Increase in entropy of water drives endothermic phase transition of hydrophobic association. For a narrow phase transition the chemical potential, t, of the molecules in the phase separated, hydrophobically associated state, 1.IHA, and the solution, hydrophobically dissociated state, 1.1HD, are equal. Therefore, at constant temperature and pressure, i.e., at equilibrium, the change in Gibbs free energy for the phase transition is zero, (ΔGt)TP=0 and ΔHT=TtΔSt. For the breadth of the transition of elastic-contractile model proteins [ECMP], it is written: ΔHt≈TtΔSt, (1) i.e., the heat of the transition, ΔHt in kcal/mol, is approximated by the product of the temperature of the transition, Tt in ° K, times the entropy change attending the transition, ΔSt in kcal/° K-mol.
The van der Walls interaction is exothermic for the hydrophobic association attending the ITT, yet the ITT is endothermic. […] The derivation of the change in Gibbs free energy for hydrophobic association, ΔGHA, and evaluation by inverse temperature transition of hydrophobic association has been reported previously (D. W. Urry, The Change in Gibbs Free Energy for Hydrophobic Association Derivation and Evaluation by means of Inverse Temperature Transitions. Chem. Phys. Letters 399 (2004) 177-183.), and is given more simply below. […]
Given the above approximation, but also recognizing that ASt is a calculated result from the differential scanning calorimetric measurement of ΔHt, we define the change in Gibbs free energy for hydrophobic association, ΔGHA, as,
The differential scanning calorimetry (DSC) data of ΔHt(GVGVP) (SEQ ID NO:4) and ΔHt(GVGIP) (SEQ ID NO:8) in FIG. 1 of Luan and Urry, J Phys Chem 95:7896-7900, 1991 provide a specific example of the difference that defines ΔGHA. […] This is the same value of 1.5 kcal/mol-CH2 for the addition of a single CH2 as determined by Butler for the alcohol series.
Once the values are determined by difference with ΔHt(GVGVP) (SEQ ID NO:4) as represented in FIG. 1E, they are translated so the reference polymer is taken as (GGGVP (SEQ ID NO:11), as this residue is considered to be close to neutral, being neither polar nor apolar. For use of (GGGVP) (SEQ ID NO:11) as the reference, i.e., ΔHt(GGGVP) (SEQ ID NO:11)=AHt(ref), in Table 3 and FIG. 13, the change in Gibbs free energy for hydrophobic association is indicated as ΔG^oHA, i.e., […]
In this case most of the ΔG^oHA values have been obtained by taking the experimental Tt, suitably extrapolated to fx=1 to obtain Tt, and reading the value of ΔG^oHA from the sigmoid curve of FIG. 13. […]

Substance	ΔG°HA(GχGVP) (data within parentheses) [2]	Tt (data within parentheses) [3]	ΔGHA of ionization (neutral versus charged residue) ([4]; from Table 1)	Tt [3]	also measured
(GVGVPGVGFPGEGFPGVGVPGVGFPGFGFP)42 (GVGVP) (GVGVPGVGFPGEGFPGVGVPGVGFPGFGFPGVGVP; repeat (1)..(30) the first 30 residues are repeated 42 times) [ECMP polymer of 253 pentamers forming drug delivery nanoparticles]	–	–	–	–	nominal size of nanoparticles [1]: 50 nm
Glu(COO^−) [E−: Glu(COO^−)]	(+3.72) kcal/mol-pentamer	(218) ° C.	5.2 kcal/mol-pentamer	–	–
Leu [L: Leu]	–	–	–	5 °C	ΔG°HA(GχGVP) ([2]; DSC, reference GGGVP = 0): −4.05 kcal/mol-pentamer; change on replacement of Val by Leu (single —CH2—) ([4]; from Table 1): −1.55 kcal/mol-CH2
Lys(NH3+) [K+: Lys(NH3+)]	(+2.94) kcal/mol-pentamer	(104) ° C.	3.5 kcal/mol-pentamer	–	–
Ser (PO4^−2)	–	–	–	860 (Tt) ° C.	ΔG°HA(GχGVP) (from graph) ([2]; Tt used to obtain value from experimental sigmoid curve of Tt versus ΔG°HA): ≈+8.0 (from graph) kcal/mol-pentamer; ΔG°HA from FIG. 13 ([2]; gross estimates (±0.5 kcal/mol) from Tt and curve, 40 mg/ml polymer, 0.15N NaCl, 0.01M phosphate pH 7.4): +8.0 kcal/mol; Tt linearly extrapolated to fX = 1 ([3]; poly[fV(VPGVG),fX(VPGXG)], 40 mg/ml polymer, 0.15N NaCl, 0.01M phosphate pH 7.4): 860 °C; contribution to change in Gibbs free energy for hydrophobic association on phosphorylation of Ser [4]: about +8 kcal/mol
